The source of these data is the supplement of paper PMC10307832.

Holding throughout (test): relative viability (nuclei count vs DMSO), 5 days (fraction); higher = more cells survive
Compound in the experiment “Zebularine + Phenformin”: O=c1ncccn1[C@@H]1O[C@H](CO)[C@@H](O)[C@H]1O [Zebularine] + N=C(N)NC(=N)NCCc1ccccc1 [Phenformin] (partner 250 µM)
Summed up: (§1)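 Relative viability equals treated-well nuclei counts divided by vehicle-well nuclei counts. Counts came from 4× images of lung cancer cell lines grown in 1536-well plates for 5 days after pin-tool dosing on the day after seeding. Dosing used one drug alone or a fixed anchor-drug dose plus five library-drug doses (not always all listed) in √10 steps, and values are medians of duplicate plates.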

Compound in the experiment “Zebularine + Alpelisib”: O=c1ncccn1[C@@H]1O[C@H](CO)[C@@H](O)[C@H]1O [Zebularine] + Cc1nc(NC(=O)N2CCC[C@H]2C(N)=O)sc1-c1ccnc(C(C)(C)C(F)(F)F)c1 [Alpelisib] (partner 2 µM)
The procedure, abridged:
as §1

Compound in the experiment “Zebularine + Palbociclib”: O=c1ncccn1[C@@H]1O[C@H](CO)[C@@H](O)[C@H]1O [Zebularine] + CC(=O)c1c(C)c2cnc(Nc3ccc(N4CCNCC4)cn3)nc2n(C2CCCC2)c1=O [Palbociclib] (partner 0.5 µM)
Summed up:
as §1

Compound in the experiment “Zebularine + Tozasertib”: O=c1ncccn1[C@@H]1O[C@H](CO)[C@@H](O)[C@H]1O [Zebularine] + Cc1cc(Nc2cc(N3CCN(C)CC3)nc(Sc3ccc(NC(=O)C4CC4)cc3)n2)n[nH]1 [Tozasertib] (partner 0.1 µM)
The procedure, abridged: as §1

Regarding 201T, the relative viability with Zebularine + Phenformin (first compound 1 µM) is 0.527; with Zebularine + Phenformin (first compound 3.162 µM), 0.485; with Zebularine + Phenformin (first compound 10 µM) it was 0.327; with Zebularine + Phenformin (first compound 31.62 µM) it was 0.492; with Zebularine + Phenformin (first compound 100 µM), 0.368; with Zebularine + Alpelisib (first compound 1 µM) it was 1.07. Moreover, the relative viability with Zebularine + Alpelisib (first compound 3.162 µM) amounted to 1.06; in the experiment with Zebularine + Alpelisib (first compound 10 µM), 0.859; with Zebularine + Alpelisib (first compound 31.62 µM) it was 0.992; with Zebularine + Alpelisib (first compound 100 µM) it was 0.877; with Zebularine + Palbociclib (first compound 1 µM) it was 0.406; with Zebularine + Palbociclib (first compound 3.162 µM), 0.355. For the same cell line, the relative viability amounted to 0.325 in the experiment with Zebularine + Palbociclib (first compound 10 µM); 0.411 in the experiment with Zebularine + Palbociclib (first compound 31.62 µM); 0.39 in the experiment with Zebularine + Palbociclib (first compound 100 µM); 1.03 with Zebularine + Tozasertib (first compound 1 µM); 0.938 with Zebularine + Tozasertib (first compound 3.162 µM); 0.647 with Zebularine + Tozasertib (first compound 10 µM). The relative viability with Zebularine + Tozasertib (first compound 31.62 µM) stood at 0.977; with Zebularine + Tozasertib (first compound 100 µM), 0.595.

Turning to A549, the relative viability with Zebularine + Phenformin (first compound 1 µM) turned out to be 0.209; with Zebularine + Phenformin (first compound 3.162 µM), 0.171; with Zebularine + Phenformin (first compound 10 µM), 0.169; with Zebularine + Phenformin (first compound 31.62 µM) it was 0.131; in the experiment with Zebularine + Phenformin (first compound 100 µM), 0.122; in the experiment with Zebularine + Alpelisib (first compound 1 µM), 0.923. The relative viability came to 0.658 with Zebularine + Alpelisib (first compound 3.162 µM), 0.625 in the experiment with Zebularine + Alpelisib (first compound 31.62 µM) and 0.317 with Zebularine + Alpelisib (first compound 100 µM).

As for A-427, the relative viability came out at 0.361 with Zebularine + Phenformin (first compound 1 µM); 0.302 with Zebularine + Phenformin (first compound 3.162 µM); 0.262 with Zebularine + Phenformin (first compound 10 µM); 0.279 with Zebularine + Phenformin (first compound 31.62 µM); 0.213 with Zebularine + Phenformin (first compound 100 µM); 1.08 with Zebularine + Alpelisib (first compound 1 µM). Also, the relative viability came out at 0.993 with Zebularine + Alpelisib (first compound 3.162 µM); 0.785 with Zebularine + Alpelisib (first compound 10 µM); 0.412 with Zebularine + Alpelisib (first compound 31.62 µM); 0.237 with Zebularine + Alpelisib (first compound 100 µM); 0.581 in the experiment with Zebularine + Palbociclib (first compound 1 µM); 0.542 with Zebularine + Palbociclib (first compound 3.162 µM). In addition, the relative viability in the experiment with Zebularine + Palbociclib (first compound 10 µM) was found to be 0.472; in the experiment with Zebularine + Palbociclib (first compound 31.62 µM) it was 0.385; in the experiment with Zebularine + Palbociclib (first compound 100 µM), 0.296; with Zebularine + Tozasertib (first compound 1 µM), 0.201; with Zebularine + Tozasertib (first compound 3.162 µM), 0.194; in the experiment with Zebularine + Tozasertib (first compound 10 µM) it was 0.222. Also, the relative viability with Zebularine + Tozasertib (first compound 31.62 µM) amounted to 0.155; with Zebularine + Tozasertib (first compound 100 µM), 0.152.

For ABC-1, the relative viability with Zebularine + Phenformin (first compound 1 µM) came to 0.237; in the experiment with Zebularine + Phenformin (first compound 3.162 µM), 0.229; with Zebularine + Phenformin (first compound 10 µM), 0.255; with Zebularine + Phenformin (first compound 31.62 µM) it was 0.179; in the experiment with Zebularine + Phenformin (first compound 100 µM) it was 0.222; with Zebularine + Alpelisib (first compound 1 µM) it was 1.43. Also, the relative viability with Zebularine + Alpelisib (first compound 3.162 µM) was 1.01; in the experiment with Zebularine + Alpelisib (first compound 10 µM), 0.84; with Zebularine + Alpelisib (first compound 31.62 µM), 0.891; with Zebularine + Alpelisib (first compound 100 µM), 0.536; with Zebularine + Palbociclib (first compound 1 µM), 0.741; in the experiment with Zebularine + Palbociclib (first compound 3.162 µM), 0.485. Further, the relative viability with Zebularine + Palbociclib (first compound 10 µM) was 0.635; with Zebularine + Palbociclib (first compound 31.62 µM), 0.589; with Zebularine + Palbociclib (first compound 100 µM), 0.471; in the experiment with Zebularine + Tozasertib (first compound 1 µM), 0.193; with Zebularine + Tozasertib (first compound 3.162 µM), 0.196; in the experiment with Zebularine + Tozasertib (first compound 10 µM), 0.164. The relative viability with Zebularine + Tozasertib (first compound 31.62 µM) came out at 0.189; with Zebularine + Tozasertib (first compound 100 µM), 0.148.

Turning to BEN, the relative viability in the experiment with Zebularine + Phenformin (first compound 1 µM) came to 0.285; with Zebularine + Phenformin (first compound 3.162 µM), 0.242; in the experiment with Zebularine + Phenformin (first compound 10 µM), 0.276; with Zebularine + Phenformin (first compound 31.62 µM), 0.251; with Zebularine + Phenformin (first compound 100 µM), 0.202; with Zebularine + Alpelisib (first compound 1 µM) it was 0.991. The relative viability is 0.897 in the experiment with Zebularine + Alpelisib (first compound 3.162 µM); 0.454 with Zebularine + Alpelisib (first compound 10 µM); 0.372 in the experiment with Zebularine + Alpelisib (first compound 31.62 µM); 0.377 with Zebularine + Alpelisib (first compound 100 µM); 0.451 in the experiment with Zebularine + Palbociclib (first compound 1 µM); 0.473 with Zebularine + Palbociclib (first compound 3.162 µM). The relative viability with Zebularine + Palbociclib (first compound 10 µM) is 0.451; with Zebularine + Palbociclib (first compound 31.62 µM), 0.422; with Zebularine + Palbociclib (first compound 100 µM), 0.368; with Zebularine + Tozasertib (first compound 1 µM) it was 0.612; in the experiment with Zebularine + Tozasertib (first compound 3.162 µM), 0.563; in the experiment with Zebularine + Tozasertib (first compound 10 µM), 0.379. Also, the results for the relative viability with Zebularine + Tozasertib (first compound 31.62 µM) and in the experiment with Zebularine + Tozasertib (first compound 100 µM) were 0.354 and 0.43, respectively.
